Measured values published in ChEMBL document CHEMBL5154652, “Design, synthesis and anti-hepatocellular carcinoma activity of 3-arylisoquinoline alkaloids” (Eur J Med Chem, 2022).

test system: HepG2; test: Antiproliferative activity against human HepG2 cells after 72 hrs by MTT assay; type: functional, cell-based; conditions: HepG2, 72 h

SMILES | IC50
CNCc1c(-c2cc3c4c(ccc3cn2)OCO4)ccc2c1OCO2 | 26.7 µM
CN(C=O)CCc1cc2c(cc1-c1cc3ccc4c(c3cn1)OCO4)OCO2 | 74 µM
CN(C)CCCc1cc2c(cc1-c1cc3ccc4c(c3cn1)OCO4)OCO2 | 80.4 µM
CN(C)Cc1c(-c2cc3c4c(ccc3cn2)OCO4)ccc2c1OCO2 | 46.7 µM

test system: HT-29; test: Antiproliferative activity against human HT-29 cells after 72 hrs by MTT assay; type: functional, cell-based; conditions: HT-29, 72 h

SMILES | IC50
CNCc1c(-c2cc3c4c(ccc3cn2)OCO4)ccc2c1OCO2 | 44.5 µM
CN(C=O)CCc1cc2c(cc1-c1cc3ccc4c(c3cn1)OCO4)OCO2 | > 150 µM
CN(C)CCCc1cc2c(cc1-c1cc3ccc4c(c3cn1)OCO4)OCO2 | 96.6 µM
CN(C)Cc1c(-c2cc3c4c(ccc3cn2)OCO4)ccc2c1OCO2 | 46.7 µM

test system: BGC-823; test: Antiproliferative activity against human BGC-823 cells after 72 hrs by MTT assay; type: functional, cell-based; conditions: BGC-823, 72 h

SMILES | IC50
CN(C=O)CCc1cc2c(cc1-c1cc3ccc4c(c3cn1)OCO4)OCO2 | 79.4 µM
CN(C)CCCc1cc2c(cc1-c1cc3ccc4c(c3cn1)OCO4)OCO2 | 51.8 µM

test system: SGC-7901; test: Antiproliferative activity against human SGC-7901 cells after 72 hrs by MTT assay; type: functional, cell-based; conditions: SGC-7901, 72 h

SMILES | IC50
CN(C=O)CCc1cc2c(cc1-c1cc3ccc4c(c3cn1)OCO4)OCO2 | > 150 µM
CN(C)CCCc1cc2c(cc1-c1cc3ccc4c(c3cn1)OCO4)OCO2 | 55.5 µM

test system: HGC-27; test: Antiproliferative activity against human HGC-27 cells after 72 hrs by MTT assay; type: functional, cell-based; conditions: HGC-27, 72 h

SMILES | IC50
CN(C=O)CCc1cc2c(cc1-c1cc3ccc4c(c3cn1)OCO4)OCO2 | 69 µM
CN(C)CCCc1cc2c(cc1-c1cc3ccc4c(c3cn1)OCO4)OCO2 | > 150 µM

test system: U-251; test: Antiproliferative activity against human U-251 cells after 72 hrs by MTT assay; type: functional, cell-based; conditions: U-251, 72 h

SMILES | IC50
CN(C=O)CCc1cc2c(cc1-c1cc3ccc4c(c3cn1)OCO4)OCO2 | 53.4 µM
CN(C)CCCc1cc2c(cc1-c1cc3ccc4c(c3cn1)OCO4)OCO2 | 24.5 µM

test system: RKO; test: Antiproliferative activity against human RKO cells after 72 hrs by MTT assay; type: functional, cell-based; conditions: not given

SMILES | IC50
CNCc1c(-c2cc3c4c(ccc3cn2)OCO4)ccc2c1OCO2 | 26.7 µM
CN(C=O)CCc1cc2c(cc1-c1cc3ccc4c(c3cn1)OCO4)OCO2 | > 150 µM
CN(C)CCCc1cc2c(cc1-c1cc3ccc4c(c3cn1)OCO4)OCO2 | 126 µM
CN(C)Cc1c(-c2cc3c4c(ccc3cn2)OCO4)ccc2c1OCO2 | 47 µM

test system: HCT-116; test: Antiproliferative activity against human HCT-116 cells after 72 hrs by MTT assay; type: functional, cell-based; conditions: HCT-116, 72 h

SMILES | IC50
CNCc1c(-c2cc3c4c(ccc3cn2)OCO4)ccc2c1OCO2 | 26.7 µM
CN(C=O)CCc1cc2c(cc1-c1cc3ccc4c(c3cn1)OCO4)OCO2 | 86 µM
CN(C)CCCc1cc2c(cc1-c1cc3ccc4c(c3cn1)OCO4)OCO2 | > 150 µM

test system: MCF7; test: Antiproliferative activity against human MCF7 cells after 72 hrs by MTT assay; type: functional, cell-based; conditions: MCF7, 72 h

SMILES | IC50
CN(C=O)CCc1cc2c(cc1-c1cc3ccc4c(c3cn1)OCO4)OCO2 | 130 µM
CN(C)CCCc1cc2c(cc1-c1cc3ccc4c(c3cn1)OCO4)OCO2 | 60.4 µM

test system: A549; test: Antiproliferative activity against human A549 cells after 72 hrs by MTT assay; type: functional, cell-based; conditions: A549, 72 h

SMILES | IC50
CN(C=O)CCc1cc2c(cc1-c1cc3ccc4c(c3cn1)OCO4)OCO2 | 96 µM
CN(C)CCCc1cc2c(cc1-c1cc3ccc4c(c3cn1)OCO4)OCO2 | 65.7 µM

test system: MDA-MB-231; test: Antiproliferative activity against human MDA-MB-231 cells after 72 hrs by MTT assay; type: functional, cell-based; conditions: MDA-MB-231, 72 h

SMILES | IC50
CN(C=O)CCc1cc2c(cc1-c1cc3ccc4c(c3cn1)OCO4)OCO2 | 60.9 µM
CN(C)CCCc1cc2c(cc1-c1cc3ccc4c(c3cn1)OCO4)OCO2 | 35.6 µM

test system: HL-60; test: Antiproliferative activity against human HL-60 cells after 72 hrs by MTT assay; type: functional, cell-based; conditions: HL-60, 72 h

SMILES | IC50
CN(C=O)CCc1cc2c(cc1-c1cc3ccc4c(c3cn1)OCO4)OCO2 | > 150 µM
CN(C)CCCc1cc2c(cc1-c1cc3ccc4c(c3cn1)OCO4)OCO2 | 93.6 µM

test system: Huh-7; test: Antiproliferative activity against human Huh-7 cells after 72 hrs by MTT assay; type: functional, cell-based; conditions: Huh-7, 72 h

SMILES | IC50
CNCc1c(-c2cc3c4c(ccc3cn2)OCO4)ccc2c1OCO2 | 20.2 µM
CN(C=O)CCc1cc2c(cc1-c1cc3ccc4c(c3cn1)OCO4)OCO2 | 63.9 µM
CN(C)CCCc1cc2c(cc1-c1cc3ccc4c(c3cn1)OCO4)OCO2 | 20 µM
CN(C)Cc1c(-c2cc3c4c(ccc3cn2)OCO4)ccc2c1OCO2 | 25.5 µM

test system: L02; test: Antiproliferative activity against human L02 cells after 72 hrs by MTT assay; type: functional, cell-based; conditions: L02, 72 h

SMILES | IC50
CNCc1c(-c2cc3c4c(ccc3cn2)OCO4)ccc2c1OCO2 | 74.6 µM
CN(C=O)CCc1cc2c(cc1-c1cc3ccc4c(c3cn1)OCO4)OCO2 | > 150 µM
CN(C)CCCc1cc2c(cc1-c1cc3ccc4c(c3cn1)OCO4)OCO2 | > 150 µM
CN(C)Cc1c(-c2cc3c4c(ccc3cn2)OCO4)ccc2c1OCO2 | > 150 µM

test system: SK-HEP1; test: Antiproliferative activity against human SK-HEP1 cells after 72 hrs by MTT assay; type: functional, cell-based; conditions: SK-HEP1, 72 h

SMILES | IC50
CN(C=O)CCc1cc2c(cc1-c1cc3ccc4c(c3cn1)OCO4)OCO2 | 145 µM
CN(C)CCCc1cc2c(cc1-c1cc3ccc4c(c3cn1)OCO4)OCO2 | 38.2 µM

test system: SW480; test: Antiproliferative activity against human SW480 cells after 72 hrs by MTT assay; type: functional, cell-based; conditions: SW480, 72 h

SMILES | IC50
CNCc1c(-c2cc3c4c(ccc3cn2)OCO4)ccc2c1OCO2 | 42.7 µM
CN(C=O)CCc1cc2c(cc1-c1cc3ccc4c(c3cn1)OCO4)OCO2 | > 150 µM
CN(C)CCCc1cc2c(cc1-c1cc3ccc4c(c3cn1)OCO4)OCO2 | 40.6 µM
CN(C)Cc1c(-c2cc3c4c(ccc3cn2)OCO4)ccc2c1OCO2 | 74.7 µM

test system: HCCLM9; test: Antiproliferative activity against human HCCLM9 cells after 72 hrs by MTT assay; type: functional, cell-based; conditions: HCCLM9, 72 h

SMILES | IC50
CNCc1c(-c2cc3c4c(ccc3cn2)OCO4)ccc2c1OCO2 | 7.25 µM
CN(C=O)CCc1cc2c(cc1-c1cc3ccc4c(c3cn1)OCO4)OCO2 | > 150 µM
CN(C)CCCc1cc2c(cc1-c1cc3ccc4c(c3cn1)OCO4)OCO2 | 15.6 µM
CN(C)Cc1c(-c2cc3c4c(ccc3cn2)OCO4)ccc2c1OCO2 | 12.5 µM
